Each compound was assayed against T1, 3-phosphoinositide-dependent protein kinase 1 (Homo sapiens, UniProt O15530) (assay: Kinase Assay: Recombinant human PDK1 enzyme (aa 52-556) linked at its N-terminal end to His6 is isolated from baculovirus-infected insect cells. Purified enzyme may be obtained for example from the University of Dundee, Scotland. The following components are combined in a well of a 96-well round-based dish (Greiner bio-one, No. 650101): 1. 15 uL of compound to be tested in varying concentrations (e.g. starting at 10 uM, and diluted in steps of 1:5) in APT buffer (50 mM Tris/Cl pH7.5; 0.05% beta -mercaptoethanol; 10 mM Mg-acetate; 0.0166% Tween 20; 3.33% DMSO) 2. 15 uL His6-PDK1 (aa 52-556) 3.33 ng/well) and PDKtide (KTFCGTPEYLAPEVRRE […]), synthesised by Pepceuticals Limited, Nottingham, United Kingdom; 25 uM final concentration); His6-PDK1 and PDKtide are together diluted accordingly in assay buffer (50 mM tris pH 7.5, 0.05% beta -mercaptoethanol, 10 mM Mg-acetate); PDKtide is present in this mixture as an 83.3 uM solution.).
T1 sequence (O15530 whole entry): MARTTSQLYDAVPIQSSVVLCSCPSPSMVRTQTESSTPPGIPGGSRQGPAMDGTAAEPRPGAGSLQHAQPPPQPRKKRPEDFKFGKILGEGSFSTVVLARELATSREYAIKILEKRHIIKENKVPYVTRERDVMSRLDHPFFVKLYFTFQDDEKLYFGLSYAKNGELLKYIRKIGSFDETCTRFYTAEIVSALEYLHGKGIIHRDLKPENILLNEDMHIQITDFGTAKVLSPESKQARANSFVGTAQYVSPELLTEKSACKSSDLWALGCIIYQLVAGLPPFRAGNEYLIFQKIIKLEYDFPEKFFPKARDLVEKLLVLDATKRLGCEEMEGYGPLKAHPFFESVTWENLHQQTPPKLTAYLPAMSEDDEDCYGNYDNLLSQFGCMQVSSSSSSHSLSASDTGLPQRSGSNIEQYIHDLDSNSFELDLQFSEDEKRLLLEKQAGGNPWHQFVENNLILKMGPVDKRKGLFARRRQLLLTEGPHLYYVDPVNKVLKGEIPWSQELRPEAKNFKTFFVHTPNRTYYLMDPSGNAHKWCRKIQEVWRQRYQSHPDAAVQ

Question: `O=C(NCC#Cc1ccc2ncc3nc[nH]c3c2c1)c1cccn(Cc2ccc(F)c(F)c2)c1=O` was tested. Which IC50 did it give?
Answer: Its IC50 is 4 nM.

Question: With `Cc1nc2cnc3ccc(C#CCNC(=O)c4cc(Cl)nn(Cc5ccc(F)c(F)c5)c4=O)cc3c2n1[C@H]1CCCN(C)C1` as the compound, how does the IC50 read?
Answer: Its IC50 is 111 nM.

Question: `Cn1c(CCO)nc2cnc3ccc(C#CCNC(=O)c4cncn(Cc5ccc(F)c(F)c5)c4=O)cc3c21` was tested. Which IC50 did it give?
Answer: The IC50 was 14 nM.
